Results: ChEMBL document CHEMBL5050844 (2019)

Target: E3 ubiquitin-protein ligase CBL-B (Homo sapiens, UniProt Q13191)
Assay: Inhibition of N-terminal Avi-tagged human CBL-B (36 to 427 residues) incubated with 60 nM Src kinase for 1.5 hrs followed by incubation with fluorescently labeled UbcH5B-Ub for 1 hr and measured by TR-FRET assay
Assay type: single protein

Chain of E3 ubiquitin-protein ligase CBL-B (Q13191 whole entry, the tested form may be a part): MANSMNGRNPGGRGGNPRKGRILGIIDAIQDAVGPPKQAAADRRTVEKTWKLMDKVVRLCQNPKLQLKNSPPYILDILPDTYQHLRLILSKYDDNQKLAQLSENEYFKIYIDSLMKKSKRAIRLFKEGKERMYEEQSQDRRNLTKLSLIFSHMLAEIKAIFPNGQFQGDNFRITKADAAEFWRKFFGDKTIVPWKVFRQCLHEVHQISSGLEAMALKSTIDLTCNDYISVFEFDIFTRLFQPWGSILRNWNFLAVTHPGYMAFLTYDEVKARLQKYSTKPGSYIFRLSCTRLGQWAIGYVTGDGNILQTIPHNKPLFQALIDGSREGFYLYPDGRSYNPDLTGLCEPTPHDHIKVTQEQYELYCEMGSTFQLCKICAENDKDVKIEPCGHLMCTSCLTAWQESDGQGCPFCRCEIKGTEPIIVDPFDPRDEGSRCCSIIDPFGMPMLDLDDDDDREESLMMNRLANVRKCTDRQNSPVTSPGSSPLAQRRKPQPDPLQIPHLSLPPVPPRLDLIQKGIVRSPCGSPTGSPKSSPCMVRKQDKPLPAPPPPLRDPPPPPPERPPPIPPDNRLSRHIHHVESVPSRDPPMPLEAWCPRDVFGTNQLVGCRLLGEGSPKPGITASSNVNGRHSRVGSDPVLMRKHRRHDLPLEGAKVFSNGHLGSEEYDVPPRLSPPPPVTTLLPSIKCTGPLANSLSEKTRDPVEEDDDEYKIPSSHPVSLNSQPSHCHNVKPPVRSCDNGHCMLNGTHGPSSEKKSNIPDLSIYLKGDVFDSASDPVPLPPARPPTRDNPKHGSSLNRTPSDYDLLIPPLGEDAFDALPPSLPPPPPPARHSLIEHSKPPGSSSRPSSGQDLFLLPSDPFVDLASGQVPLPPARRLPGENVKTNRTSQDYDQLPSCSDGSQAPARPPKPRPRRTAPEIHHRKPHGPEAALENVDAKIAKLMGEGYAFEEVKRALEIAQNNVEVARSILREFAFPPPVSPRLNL

Structure (SMILES)	IC50 [nM]
Cn1cnnc1CC1(c2cccc(N3Cc4c(cc(CN5CCc6cnccc6C5)cc4C(F)(F)F)C3=O)c2)COC1	< 100
CC(c1cc2c(c(C(F)(F)F)c1)CN(c1cccc(C3(Cc4nncn4C)COC3)c1)C2=O)n1ccnc1 (stereo unspecified)	< 100
Cn1cnnc1CC1(c2cccc(N3Cc4c(cc(CN5CC[C@@H](F)[C@H](F)C5)cc4C(F)(F)F)C3=O)c2)COC1	< 100
Cn1cnnc1CC1(c2cccc(N3Cc4c(cc(CN5CCOC(C(F)F)C5)cc4C(F)(F)F)C3=O)c2)COC1 (stereo unspecified)	< 100
Cn1cnnc1CC1(c2cccc(N3Cc4c(cc(CN5CCC(F)(F)C(O)C5)cc4C(F)(F)F)C3=O)c2)COC1 (stereo unspecified)	< 100
Cn1cnnc1CC1(c2cccc(N3Cc4c(cc(CN5CCOC(C6CCC6)C5)cc4C(F)(F)F)C3=O)c2)COC1 (stereo unspecified)	< 100
Cn1cnnc1CC1(c2cccc(N3Cc4c(cc(CN5CCOC(CF)C5)cc4C(F)(F)F)C3=O)c2)COC1 (stereo unspecified)	< 100
Cn1cnnc1CC1(c2cccc(N3Cc4c(cc(C5CCCOC5)cc4C(F)(F)F)C3=O)c2)COC1 (stereo unspecified)	< 100
Cn1cnnc1CC1(c2cccc(N3Cc4c(cc(CN5CCOC6(CC6)C5)cc4C(F)(F)F)C3=O)c2)COC1	< 100
Cn1cnnc1CC1(c2cccc(N3Cc4c(cc(CN5CCO[C@H](C(F)(F)F)C5)cc4C(F)(F)F)C3=O)c2)COC1	< 100
COC[C@@H]1CN(Cc2cc3c(c(C(F)(F)F)c2)CN(c2cccc(C4(Cc5nncn5C)COC4)c2)C3=O)CCO1	< 100
Cn1cnnc1CC1(c2cccc(N3Cc4c(cc(CN5CCOC6(CCOC6)C5)cc4C(F)(F)F)C3=O)c2)COC1 (stereo unspecified)	< 100
Cn1cnnc1CC1(c2cccc(N3Cc4c(cc(CN5CC[C@@H](F)[C@@H](F)C5)cc4C(F)(F)F)C3=O)c2)COC1 (relative stereo)	< 100
Cn1cnnc1CC1(c2cccc(N3Cc4c(cc(CN5CCOC(CCF)C5)cc4C(F)(F)F)C3=O)c2)COC1 (stereo unspecified)	< 100
Cn1cnnc1CC1(c2cccc(N3Cc4c(cc(CN5Cc6cccc(C#N)c6C5)cc4C(F)(F)F)C3=O)c2)COC1	< 100
CC(C)C1CN(Cc2cc3c(c(C(F)(F)F)c2)CN(c2cccc(C4(Cc5nncn5C)COC4)c2)C3=O)CCO1 (stereo unspecified)	< 100

Structure (SMILES)	IC50 [nM]
Cc1cc(C(=O)Nc2cccc(C3(Cc4nncn4C(F)F)COC3)c2)nc(C2CC2)n1	< 100
Cn1cnnc1CC1(c2cccc(N3Cc4c(cc(CN5CCC(F)CC5)cc4C4CC4)C3=O)c2)COC1	< 100
CN1CC[C@H](O)C(Cc2cc3c(c(C(F)(F)F)c2)CN(c2cccc(C4(Cc5nncn5C)COC4)c2)C3=O)C1 (single isomer, unassigned)	< 100
Cc1cn(C)c(SC(C)c2ccnc(NC(=O)c3ccc4ccccc4n3)c2)n1 (stereo unspecified)	> 10000
CC(c1cc(C(=O)Nc2cccc(C3(Cc4nncn4C)COC3)c2)nc(C2CC2)n1)N1CCC2(CC2)C1 (single isomer, unassigned; 592b)	< 100
Cn1cnnc1CC1(c2cccc(N3Cc4c(cc(CN5CCc6cccnc6C5)cc4C(F)(F)F)C3=O)c2)COC1	< 100
Cn1cnnc1CC1(c2cccc(N3Cc4c(cc(CN5CCc6ncccc6C5)cc4C(F)(F)F)C3=O)c2)COC1	< 100
Cn1cnnc1CC1(c2cccc(N3Cc4c(cc(C(O)C(F)(F)F)cc4C(F)(F)F)C3=O)c2)COC1 (stereo unspecified)	< 100
C[C@H](Sc1nncn1C)c1cccc(NC(=O)c2cc(C(=O)N3CCC[C@H]3C)ccn2)c1	> 10000
C[C@@H](Cc1n[nH]cc1CO)c1cccc(N2Cc3c(cccc3C(F)(F)F)C2=O)c1	> 10000
CN(c1cc2c(c(C(F)(F)F)c1)CN(c1cccc([C@@](C)(F)C(F)(F)c3nncn3C)c1)C2=O)[C@H]1CNC[C@@H]1F	< 100
C[C@@H]1CCN(Cc2cc3c(c(C(F)(F)F)c2)CN(c2cccc(C4(Cc5nncn5C)COC4)c2)C3=O)C[C@@H]1F	< 100
Cn1cnnc1CC1(c2cccc(N3Cc4c(cc(CN5CC6CC(C5)C6(F)F)cc4C(F)(F)F)C3=O)c2)COC1	< 100
Cc1cc(C(=O)Nc2cccc(C3(Cc4[nH]ncc4C)COC3)c2)nc(C2CC2)n1	< 100
Cn1cnnc1CC1(c2cccc(N3Cc4c(cc(CN5CCOC(C6CC6)C5)cc4C(F)(F)F)C3=O)c2)COC1 (stereo unspecified)	< 100
